Test results as given in patent US9682940B2, “Indazole derivatives useful as CB-1 inverse agonists” (Janssen Pharmaceutica NV, priority 2015, dated 2017).

Key:
[1] = target: Human CB1R (Cannabanoid receptor 1) (Homo sapiens (Human), UniProt P21554); test: CB-1 in vitro cAMP (HTRF) assay in HEK-293 cells; assay type: cell-based; details: HEK-293 cells stably transfected with human CB1R, 250 nM Forskolin, mean where tested more than once, read-out: CB-1 (HEK_cAMP) EC50
Summary of the method: (§1)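 HEK-293 cells stably expressing human CB1 or CB2 plated overnight, then tested in HBSS/5 mM HEPES/0.1% BSA with 0.5 mM IBMX and forskolin (1.5 μM working dilution). Intracellular cAMP quantified by competitive HTRF immunoassay (d2-cAMP, cryptate anti-cAMP) against a cAMP standard curve; compounds as 1/3 serial dilutions from 10 mM DMSO stocks.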

[2] = target: Human CB2R (Cannabanoid receptor 2) (Homo sapiens (Human), UniProt P34972); test: CB-2 in vitro cAMP (HTRF) assay in HEK-293 cells; assay type: cell-based; details: HEK-293 cells stably transfected with human CB2R, 250 nM Forskolin, mean where tested more than once, read-out: CB-2 (HEK_cAMP) EC50
Summary of the method: as §1

Sequence of Human CB1R (Cannabanoid receptor 1) (P21554 whole entry): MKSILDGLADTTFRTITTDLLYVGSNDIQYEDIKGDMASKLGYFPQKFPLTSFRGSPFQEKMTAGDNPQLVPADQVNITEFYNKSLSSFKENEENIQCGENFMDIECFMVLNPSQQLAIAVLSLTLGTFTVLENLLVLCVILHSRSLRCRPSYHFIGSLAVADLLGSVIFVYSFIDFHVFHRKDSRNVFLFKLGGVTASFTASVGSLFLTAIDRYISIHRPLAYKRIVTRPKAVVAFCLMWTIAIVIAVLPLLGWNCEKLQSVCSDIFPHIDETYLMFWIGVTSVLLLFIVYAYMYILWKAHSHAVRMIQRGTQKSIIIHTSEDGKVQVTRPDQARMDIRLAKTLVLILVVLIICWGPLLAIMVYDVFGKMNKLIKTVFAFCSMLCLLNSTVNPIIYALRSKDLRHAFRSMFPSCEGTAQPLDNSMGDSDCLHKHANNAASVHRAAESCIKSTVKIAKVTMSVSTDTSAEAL
Sequence of Human CB2R (Cannabanoid receptor 2) (P34972 whole entry): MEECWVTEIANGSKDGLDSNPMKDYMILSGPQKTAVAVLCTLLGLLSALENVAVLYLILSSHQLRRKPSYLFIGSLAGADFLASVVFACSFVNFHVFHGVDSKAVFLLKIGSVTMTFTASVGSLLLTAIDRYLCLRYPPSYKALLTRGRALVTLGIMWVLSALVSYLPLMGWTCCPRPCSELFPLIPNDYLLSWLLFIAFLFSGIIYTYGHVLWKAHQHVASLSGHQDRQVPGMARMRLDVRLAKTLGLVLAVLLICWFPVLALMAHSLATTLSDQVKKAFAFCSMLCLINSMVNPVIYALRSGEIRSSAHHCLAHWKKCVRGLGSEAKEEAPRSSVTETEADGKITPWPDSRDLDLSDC

EC50 [1] [nM]	EC50 [2] [nM]	SMILES
410	> 10000	O=C(O)c1ccc(S(=O)(=O)N2CCC(c3n[nH]c4ccc(C(c5ccc(Cl)cc5)c5ccc(Cl)cc5)cc34)CC2)cc1 [Compound 27]
72	> 10000	O=C(CC(F)(F)F)N1CCC(c2n[nH]c3ccc(C(c4ccc(Cl)cc4)c4ccc(Cl)cc4)cc23)CC1 [Compound 56]
3550	> 10000	O=C(O)c1ccc([C@H](c2ccc(Cl)cc2)c2ccc3[nH]nc(N4CCN(S(=O)(=O)C(F)(F)F)CC4)c3c2)cc1 [Compound 233]
14	> 10000	O=S(=O)(N1CCC(c2nn(CCO)c3ccc(C(c4ccc(Cl)cc4)c4ccc(Cl)cc4)cc23)CC1)C(F)(F)F [Compound 79]
144	> 10000	CC(C)(C)OC(=O)N1CCC(c2n[nH]c3ccc(C(c4ccc(Cl)cc4)c4ccc(Cl)cc4)cc23)CC1 [Compound 39]
40	> 10000	O=C(OC1CCCC1)N1CCC(c2n[nH]c3ccc(C(c4ccc(Cl)cc4)c4ccc(Cl)cc4)cc23)CC1 [Compound 271]
32	12400	CCOC(=O)N1CCC(c2n[nH]c3ccc(C(c4ccc(Cl)cc4)c4ccc(Cl)cc4)cc23)CC1 [Compound 268]
158	> 10000	NC(=O)CS(=O)(=O)N1CCC(c2c3cc(C(c4ccc(Cl)cc4)c4ccc(Cl)cc4)ccc3nn2C2CC2)CC1 [Compound 137]
65	> 10000	COC(=O)c1cccc(S(=O)(=O)N2CCC(c3n[nH]c4ccc(C(c5ccc(Cl)cc5)c5ccc(Cl)cc5)cc34)CC2)c1 [Compound 60]
374	> 10000	O=S(=O)(c1cccc(C(F)(F)F)c1)N1CCC(c2n[nH]c3ccc(C(c4ccc(Cl)cc4)c4ccc(Cl)cc4)cc23)CC1 [Compound 59]
1550	7000	CC(c1cccc(C(=O)O)c1)N1CCC(c2n[nH]c3ccc(C(c4ccc(Cl)cc4)c4ccc(Cl)cc4)cc23)C1 (centres unmarked) [Compound 277]
60	> 10000	O=S(=O)(N1CCC(Nc2n[nH]c3ccc(C(c4ccc(Cl)cc4)c4ccc(Cl)cc4)cc23)CC1)C(F)(F)F [Compound 77]
179	> 10000	CC(C)S(=O)(=O)N1CCC(Nc2n[nH]c3ccc(C(c4ccc(Cl)cc4)c4ccc(Cl)cc4)cc23)CC1 [Compound 78]
151	> 10000	COC(=O)c1ccc(S(=O)(=O)N2CCC(c3n[nH]c4ccc(C(c5ccc(Cl)cc5)c5ccc(Cl)cc5)cc34)CC2)cc1 [Compound 24]

The next lines start with the compound.

SMILES	EC50 [1] [nM]	EC50 [2] [nM]
CCOC(=O)Cn1nc(C2CCN(S(=O)(=O)C(F)(F)F)CC2)c2cc(C(c3ccc(Cl)cc3)c3ccc(Cl)cc3)ccc21 [Compound 75]	3920	> 10000
O=C(O)c1ccc(N2CCC(c3c4cc(C(c5ccc(Cl)cc5)c5ccc(Cl)cc5)ccc4nn3C3CC3)CC2)cc1 [Compound 193]	474	9300
O=C(O)c1ccc(S(=O)(=O)N2CCC(c3c4cc(C(c5ccc(Cl)cc5)c5ccc(Cl)cc5)ccc4nn3C3CC3)CC2)cc1 [Compound 117, 4-(4-(5-(bis(4-chlorophenyl)methyl)-2-cyclopropyl-2H-indazol-3-yl)piperidin-1-ylsulfonyl)benzoic acid]	9	1550
NC(=O)c1cccc(S(=O)(=O)N2CCC(c3nn(CCO)c4ccc(C(c5ccc(Cl)cc5)c5ccc(Cl)cc5)cc34)CC2)c1 [Compound 82]	82	> 10000
NC(=O)c1ccc(S(=O)(=O)N2CCC(Nc3n[nH]c4ccc(C(c5ccc(Cl)cc5)c5ccc(Cl)cc5)cc34)CC2)cc1 [Compound 120]	50	> 10000
O=C(O)c1ccc(S(=O)(=O)N2CCC(c3c4cc(C(c5ccc(Cl)cc5)c5ccc(Cl)cc5)ccc4nn3C3CC3)CC2)cc1F [Compound 200]	624	> 10000
NC(=O)c1cccc(S(=O)(=O)N2CCC(c3c4cc(C(c5ccc(Cl)cc5)c5ccc(Cl)cc5)ccc4nn3C3CC3)CC2)c1 [Compound 140, 3-(4-(5-(bis(4-chlorophenyl)methyl)-2-cyclopropyl-2H-indazol-3-yl)piperidin-1-ylsulfonyl)benzamide]	11	> 10000
O=S(=O)(N1CCN(c2nn(S(=O)(=O)C(F)(F)F)c3ccc(C(c4ccc(Cl)cc4)c4ccc(Cl)cc4)cc23)CC1)C(F)(F)F [Compound 29]	1490	> 10000
NC(=O)COc1ccc(N2CCC(c3nn(C4CC4)c4ccc(C(c5ccc(Cl)cc5)c5ccc(Cl)cc5)cc34)CC2)cc1 [Compound 175]	1130	> 10000
COc1ccccc1S(=O)(=O)N1CCC(Nc2n[nH]c3ccc(C(c4ccc(Cl)cc4)c4ccc(Cl)cc4)cc23)CC1 [Compound 100]	428	> 10000
O=C(O)c1ccc(CN2CCC(c3nn(C4CC4)c4ccc(C(c5ccc(Cl)cc5)c5ccc(Cl)cc5)cc34)CC2)o1 [Compound 250]	43	> 10000
O=C(O)CCNC(=O)c1ccc(-n2nc(C3CCN(S(=O)(=O)C(F)(F)F)CC3)c3cc(C(c4ccc(Cl)cc4)c4ccc(Cl)cc4)ccc32)cc1 [Compound 230]	3260	> 10000
O=C(O)COc1ccc(N2CCC(c3nn(C4CC4)c4ccc(C(c5ccc(Cl)cc5)c5ccc(Cl)cc5)cc34)CC2)cc1 [Compound 192]	7080	> 10000
NC(=O)c1cccc(S(=O)(=O)N2CCC(Nc3n[nH]c4ccc(C(c5ccc(Cl)cc5)c5ccc(Cl)cc5)cc34)CC2)c1 [Compound 122]	99	> 10000
CNC(=O)c1ccc(S(=O)(=O)N2CCC(c3c4cc(C(c5ccc(Cl)cc5)c5ccc(Cl)cc5)ccc4nn3C3CC3)CC2)cn1 [Compound 155, 5-(4-(5-(bis(4-chlorophenyl)methyl)-2-cyclopropyl-2H-indazol-3-yl)piperidin-1-ylsulfonyl)-N-methylpicolinamide]	6	> 10000
CNC(=O)c1ccc(S(=O)(=O)N2CCC(c3c4cc(C(c5ccc(Cl)cc5)c5ccc(Cl)cc5)ccc4nn3C3CC3)CC2)cc1OC [Compound 147, 4-(4-(5-(bis(4-chlorophenyl)methyl)-2-cyclopropyl-2H-indazol-3-yl)piperidin-1-ylsulfonyl)-2-methoxy-N-methylbenzamide]	23	> 10000
NC(=O)c1csc(CS(=O)(=O)N2CCC(c3nn(C4CC4)c4ccc(C(c5ccc(Cl)cc5)c5ccc(Cl)cc5)cc34)CC2)c1 [Compound 235]	22	> 10000
CNC(=O)c1cc(S(=O)(=O)N2CCC(c3c4cc(C(c5ccc(Cl)cc5)c5ccc(Cl)cc5)ccc4nn3C3CC3)CC2)ccc1OC [Compound 159, 5-(4-(5-(bis(4-chlorophenyl)methyl)-2-cyclopropyl-2H-indazol-3-yl)piperidin-1-ylsulfonyl)-2-methoxy-N-methylbenzamide]	3	> 10000
O=C(O)c1ccc(S(=O)(=O)N2CCC(c3c4cc(C(c5ccc(Cl)cc5)c5ccc(Cl)cc5)ccc4nn3C3CC3)CC2)o1 [Compound 171, 5-(4-(5-(bis(4-chlorophenyl)methyl)-2-cyclopropyl-2H-indazol-3-yl)piperidin-1-ylsulfonyl)furan-2-carboxylic acid]	3	> 10000
O=C(O)c1cccc(N2CCC(c3nn(C4CC4)c4ccc(C(c5ccc(Cl)cc5)c5ccc(Cl)cc5)cc34)CC2)c1 [Compound 178]	324	> 10000
NC(=O)c1ccc(S(=O)(=O)N2CCC(c3nn(CCO)c4ccc(C(c5ccc(Cl)cc5)c5ccc(Cl)cc5)cc34)CC2)cc1 [Compound 69]	26	> 10000
NC(=O)c1ccc(C(c2ccc(Cl)cc2)c2ccc3nn(C4CC4)c(C4CCN(S(=O)(=O)C(F)(F)F)CC4)c3c2)cc1 (centres unmarked) [Compound 249, 4-((4-chlorophenyl)(2-cyclopropyl-3-(1-(trifluoromethylsulfonyl)piperidin-4-yl)-2H-indazol-5-yl)methyl)benzamide]	15	> 10000
NC(=O)c1ccccc1Cn1nc(N2CCN(S(=O)(=O)C(F)(F)F)CC2)c2cc(C(c3ccc(Cl)cc3)c3ccc(Cl)cc3)ccc21 [Compound 55]	649	> 10000
O=C(O)CCS(=O)(=O)N1CCC(c2nn(C3CC3)c3ccc(C(c4ccc(Cl)cc4)c4ccc(Cl)cc4)cc23)CC1 [Compound 106]	9200	> 10000
O=C(O)c1ccc(N2CCC(c3nn(C4CC4)c4ccc(C(c5ccc(Cl)cc5)c5ccc(Cl)cc5)cc34)CC2)cc1 [Compound 198]	150	> 10000
O=C(O)Cc1ccc(N2CCC(c3c4cc(C(c5ccc(Cl)cc5)c5ccc(Cl)cc5)ccc4nn3C3CC3)CC2)cc1 [Compound 203]	53	> 10000
NC(=O)c1ccc(CN2CCC(c3nn(C4CC4)c4ccc(C(c5ccc(Cl)cc5)c5ccc(Cl)cc5)cc34)CC2)cc1 [Compound 210]	134	> 10000
NC(=O)c1cc(S(=O)(=O)N2CCC(c3c4cc(C(c5ccc(Cl)cc5)c5ccc(Cl)cc5)ccc4nn3C3CC3)CC2)ccc1F [Compound 163, 5-(4-(5-(bis(4-chlorophenyl)methyl)-2-cyclopropyl-2H-indazol-3-yl)piperidin-1-ylsulfonyl)-2-fluorobenzamide]	12	> 10000
O=C(O)c1cncc(CN2CCC(c3c4cc(C(c5ccc(Cl)cc5)c5ccc(Cl)cc5)ccc4nn3C3CC3)CC2)c1 [Compound 255, 5-((4-(5-(bis(4-chlorophenyl)methyl)-2-cyclopropyl-2H-indazol-3-yl)piperidin-1-yl)methyl)nicotinic acid]	34	> 10000
